Values after ≈ are worked out from the molar mass of the structure shown. Blank lines part the entries; values can stand above or below the compound they belong to.
Legend:
Experiment in all cases: ≥ marks a high value that may be exact or a test limit, other limits are often not marked, values filed in µg/mL are converted to µM
[1] = test system: Staphylococcus aureus NCTC 10788
[2] = test system: Candida albicans NCYC 1467
[3] = test system: Escherichia coli NCTC 10418
[4] = test system: Pseudomonas aeruginosa ATCC 27853
Pseudomonas aeruginosa = test system: Pseudomonas aeruginosa
[5] = test system: Staphylococcus aureus NCTC 12493
Staphylococcus aureus = test system: Staphylococcus aureus
[6] = test system: Escherichia coli ATCC 25922
[7] = test system: Bordetella bronchiseptica CUN 11844-99
[8] = test system: Staphylococcus aureus ATCC 25923
[9] = test system: Pseudomonas aeruginosa CUN 4158-02
[10] = test system: Bacillus subtilis ATCC 23857
[11] = test system: Candida albicans ATCC 90028
[12] = test system: Cryptococcus neoformans ATCC 28957
[13] = test system: Pseudomonas aeruginosa Z61
[14] = test system: Pseudomonas aeruginosa H547
[15] = test system: Pseudomonas aeruginosa K799
[16] = test system: Burkholderia cepacia ATCC 25416
[17] = test system: Pseudomonas aeruginosa H744
[18] = test system: Salmonella enterica subsp. enterica serovar Typhimurium ATCC 14028s
Escherichia coli UB1005 = test system: Escherichia coli UB1005
[19] = test system: Mycobacterium tuberculosis H37Rv
[20] = test system: Pseudomonas aeruginosa H187
[21] = test system: Pseudomonas aeruginosa H1001

- MIC [1]: 8 µM (≈ 20.5 µg/mL)
- MIC [2]: 4 µM (≈ 10.2 µg/mL)
- MIC [3]: 8 µM (≈ 20.5 µg/mL)
Structure (SMILES): CC[C@H](C)[C@H](NC(=O)[C@H](CCCCN)NC(=O)[C@H](CCCCN)NC(=O)[C@H](Cc1c[nH]c2ccccc12)NC(=O)[C@H](CC(C)C)NC(=O)[C@H](C)N)C(=O)N[C@@H](CC(C)C)C(=O)N[C@@H](CCCCN)C(=O)N[C@@H](CC(N)=O)C(=O)N[C@@H](C)C(=O)NCC(=O)N[C@@H](CCCCN)C(=O)N[C@@H](C)C(=O)N[C@@H](C)C(=O)N[C@@H](CC(C)C)C(=O)N[C@@H](CC(N)=O)C(=O)N[C@@H](CCCCN)C(=O)N[C@H](C(=O)N[C@@H](CC(N)=O)C(=O)N[C@@H](CCC(N)=O)C(=O)N[C@H](C(=O)N[C@H](C(=O)N[C@@H](CCC(N)=O)C(N)=O)C(C)C)[C@@H](C)CC)[C@@H](C)CC [ALWKKILKNAGKAALNKINQIVQ]

- MIC [1]: 4 µM (≈ 9.12 µg/mL)
- MIC [4]: > 512 µM
- MIC [2]: 4 µM (≈ 9.12 µg/mL)
- MIC [3]: 16 µM (≈ 36.5 µg/mL)
- MIC (Pseudomonas aeruginosa): > 512 µM
- MIC [5]: 4 µM (≈ 9.12 µg/mL)
- MIC (Staphylococcus aureus): 8 µM (≈ 18.2 µg/mL)
Structure (SMILES): CC[C@H](C)[C@@H]1NC(=O)[C@@H](NC(=O)[C@H](Cc2ccccc2)NC(=O)[C@H](C)NC(=O)[C@H](CCCCN)NC(=O)[C@H](CCCCN)NC(=O)[C@H](CC(C)C)NC(=O)[C@H](CC(C)C)NC(=O)[C@H](Cc2ccccc2)NC(=O)[C@@H](NC(=O)[C@H](CO)NC(=O)[C@@H]2CCCN2C(=O)[C@@H](NC(=O)[C@@H](NC(=O)[C@@H](N)Cc2ccccc2)[C@@H](C)CC)C(C)C)[C@@H](C)CC)CSSC[C@@H](C(=O)O)NC(=O)[C@H](CCCCN)NC(=O)[C@H](CCCCN)NC(=O)[C@H](CC(C)C)NC(=O)[C@H](C)NC1=O [FIVPSIFLLKKAFCIALKKC]

- MIC [6]: 26.1 µM (≈ 64 µg/mL)
- MIC [7]: 6.54 µM (≈ 16 µg/mL)
- MIC [8]: 26.1 µM (≈ 64 µg/mL)
- MIC [9]: 26.1 µM (≈ 64 µg/mL)
Structure (SMILES): CC(C)C[C@H](NC(=O)CNC(=O)[C@H](CCCCN)NC(=O)[C@H](Cc1ccccc1)NC(=O)[C@H](CCCCN)NC(=O)[C@H](Cc1c[nH]c2ccccc12)NC(=O)[C@H](CCCN=C(N)N)NC(=O)[C@H](Cc1ccccc1)NC(=O)[C@H](CCCCN)NC(=O)[C@H](CCCCN)NC(=O)[C@H](Cc1ccc(O)cc1)NC(=O)[C@H](CCCN=C(N)N)NC(=O)[C@H](CCCN=C(N)N)NC(=O)CN)C(=O)N[C@@H](Cc1ccccc1)C(=O)N[C@@H](CC(C)C)C(=O)N[C@@H](Cc1ccccc1)C(=O)N[C@@H](CC(C)C)C(=O)NCC(N)=O [GRRYKKFRWKFKGLFLFLG]

- MIC [10]: ≥ 64 µM
- MIC [11]: ≥ 128 µM
- MIC [12]: ≥ 128 µM
Structure (SMILES): CC[C@H](C)[C@H](N)C(=O)N[C@H](C(=O)N[C@@H](CC(N)=O)C(=O)N[C@@H](Cc1cnc[nH]1)C(=O)N[C@@H](CC(C)C)C(=O)N[C@H](C(=O)N[C@@H](CCCCN)C(=O)N[C@@H](CC(C)C)C(=O)N[C@@H](Cc1ccccc1)C(=O)N[C@@H](CC(=O)O)C(=O)N[C@@H](CCCCN)C(=O)NCC(=O)N[C@@H](CC(C)C)C(=O)N[C@@H](CC(N)=O)C(=O)N[C@@H](CO)C(=O)N[C@H](C(=O)N[C@H](C(=O)N[C@@H](CC(N)=O)C(=O)N[C@@H](CC(C)C)C(=O)N[C@@H](CCCN=C(N)N)C(N)=O)C(C)C)[C@@H](C)CC)C(C)C)C(C)C [IVNHLVKLFDKGLNSIVNLR]

- MIC [13]: 6.63 µM (≈ 19 µg/mL)
- MIC [14]: 11.2 µM (≈ 32 µg/mL)
- MIC [15]: 11.2 µM (≈ 32 µg/mL)
- MIC [16]: 22.3 µM (≈ 64 µg/mL)
- MIC [17]: 1.4 µM (≈ 4 µg/mL)
- MIC [18]: 10.1 µM (≈ 29 µg/mL)
- MIC (Escherichia coli UB1005): 1.75 µM (≈ 5 µg/mL)
Structure (SMILES): CC[C@H](C)[C@H](NC(=O)CNC(=O)[C@@H](NC(=O)[C@H](CCCCN)NC(=O)[C@H](CCCCN)NC(=O)[C@H](Cc1ccccc1)NC(=O)[C@H](CC(C)C)NC(=O)[C@@H](N)CCCCN)[C@@H](C)CC)C(=O)NCC(=O)N[C@@H](C)C(=O)N[C@H](C(=O)N[C@@H](CC(C)C)C(=O)N[C@@H](CCCCN)C(=O)N[C@H](C(=O)N[C@@H](CC(C)C)C(=O)N[C@H](C(=O)N[C@H](C(=O)NCC(=O)N[C@@H](CC(C)C)C(=O)N1CCC[C@H]1C(=O)N[C@@H](C)C(=O)N[C@@H](CC(C)C)C(=O)N[C@@H](CCCCN)C(=O)N[C@@H](CC(C)C)C(=O)N[C@H](C(=O)N[C@@H](CC(C)C)C(=O)N[C@@H](CCCCN)C(=O)O)[C@@H](C)O)[C@@H](C)O)[C@@H](C)O)C(C)C)C(C)C [KLFKKIGIGAVLKVLTTGLPALKLTLK]

- MIC [19]: ≥ 82.7 µM
Structure (SMILES): CSCC[C@H](NC(=O)[C@H](CCC(=O)O)NC(=O)[C@H](CCCN=C(N)N)NC(=O)[C@@H](N)CCCCN)C(=O)N[C@@H](CCCCN)C(=O)N[C@@H](CCCN=C(N)N)C(=O)N1CCC[C@H]1C(=O)NCC(=O)N[C@@H](CCCCN)C(=O)NCC(=O)N[C@@H](CC(N)=O)C(=O)N[C@@H](CCCN=C(N)N)C(=O)N[C@@H](CC(N)=O)C(=O)N[C@@H](CC(N)=O)C(=O)N[C@@H](Cc1c[nH]c2ccccc12)C(=O)N[C@@H](CCCCN)C(=O)N[C@@H](CCCCN)C(=O)N[C@@H](CCC(=O)O)C(=O)N[C@@H](Cc1ccc(O)cc1)C(=O)O [KREMKRPGKGNRNNWKKEY]

- MIC [20]: 1.65 µM (≈ 4.8 µg/mL)
- MIC (Escherichia coli UB1005): 0.823 µM (≈ 2.4 µg/mL)
Structure (SMILES): CC[C@H](C)[C@H](NC(=O)[C@H](CC(C)C)NC(=O)[C@H](C)NC(=O)[C@@H]1CCCN1C(=O)[C@H](CC(C)C)NC(=O)CNC(=O)[C@@H](NC(=O)[C@@H](NC(=O)[C@H](CC(C)C)NC(=O)[C@@H](NC(=O)[C@H](CCCCN)NC(=O)[C@H](CCCCN)NC(=O)[C@@H](NC(=O)[C@H](C)NC(=O)[C@@H](NC(=O)[C@@H](NC(=O)[C@H](CC(C)C)NC(=O)[C@H](CCCCN)NC(=O)[C@H](CCCCN)NC(=O)[C@@H](NC(=O)[C@H](Cc1ccccc1)NC(=O)[C@H](CCC(=O)O)NC(=O)[C@H](CCCCN)NC(=O)[C@H](Cc1c[nH]c2ccccc12)NC(=O)[C@@H](N)CCCCN)[C@@H](C)CC)[C@@H](C)O)[C@@H](C)O)C(C)C)C(C)C)[C@@H](C)O)[C@@H](C)O)C(=O)N[C@@H](CO)C(=O)O [KWKEFIKKLTTAVKKVLTTGLPALIS]

- MIC [13]: 1.35 µM (≈ 4 µg/mL)
- MIC [14]: 5.41 µM (≈ 16 µg/mL)
- MIC [15]: 1.35 µM (≈ 4 µg/mL)
- MIC [16]: 21.6 µM (≈ 64 µg/mL)
- MIC [17]: 0.676 µM (≈ 2 µg/mL)
- MIC [18]: 1.69 µM (≈ 5 µg/mL)
- MIC (Escherichia coli UB1005): 0.676 µM (≈ 2 µg/mL)
Structure (SMILES): CC[C@H](C)[C@H](NC(=O)[C@H](CC(C)C)NC(=O)[C@H](C)NC(=O)[C@H](CC(C)C)NC(=O)[C@@H]1CCCN1C(=O)[C@H](CCCCN)NC(=O)[C@H](C)NC(=O)[C@@H](NC(=O)[C@@H](NC(=O)[C@@H](NC(=O)[C@@H](NC(=O)[C@H](CCCCN)NC(=O)[C@H](CCCCN)NC(=O)[C@H](C)NC(=O)[C@H](C)NC(=O)[C@H](CO)NC(=O)[C@@H](NC(=O)[C@H](CC(C)C)NC(=O)[C@H](CCCCN)NC(=O)[C@H](CCCCN)NC(=O)[C@@H](NC(=O)[C@H](Cc1ccccc1)NC(=O)[C@H](CO)NC(=O)[C@H](CCCCN)NC(=O)[C@H](Cc1c[nH]c2ccccc12)NC(=O)[C@@H](N)CCCCN)[C@@H](C)CC)[C@@H](C)O)C(C)C)C(C)C)[C@@H](C)O)[C@@H](C)O)C(=O)N[C@@H](CO)C(=O)O [KWKSFIKKLTSAAKKVVTTAKPLALIS]

- MIC [20]: 2.75 µM (≈ 8 µg/mL)
- MIC (Escherichia coli UB1005): 0.343 µM (≈ 1 µg/mL)
Structure (SMILES): CC[C@H](C)[C@H](NC(=O)[C@H](Cc1ccccc1)NC(=O)[C@H](CO)NC(=O)[C@H](CCCCN)NC(=O)[C@H](Cc1c[nH]c2ccccc12)NC(=O)[C@@H](N)CCCCN)C(=O)N[C@@H](CCCCN)C(=O)N[C@@H](CC(N)=O)C(=O)N[C@@H](CC(C)C)C(=O)N[C@@H](CCC(=O)O)C(=O)N[C@@H](CCCCN)C(=O)N[C@H](C(=O)N[C@@H](CC(C)C)C(=O)N[C@@H](CCCCN)C(=O)N1CCC[C@H]1C(=O)NCC(=O)NCC(=O)N[C@@H](CC(C)C)C(=O)N[C@@H](CC(C)C)C(=O)N[C@@H](CO)C(=O)N[C@@H](CC(N)=O)C(=O)N[C@H](C(=O)N[C@H](C(=O)N[C@H](C(=O)N[C@@H](CO)C(=O)N[C@@H](CC(C)C)C(=O)O)[C@@H](C)O)C(C)C)[C@@H](C)CC)C(C)C [KWKSFIKNLEKVLKPGGLLSNIVTSL]

- MIC [21]: ≥ 173 µM
Structure (SMILES): CC[C@H](C)[C@H](NC(=O)[C@H](C)NC(=O)[C@H](CC(N)=O)NC(=O)[C@H](CCSC)NC(=O)[C@@H]1CCCN1)C(=O)N[C@@H](CCCCN)C(=O)N[C@@H](CC(C)C)C(=O)N[C@@H](CC(C)C)C(=O)N[C@@H](CS)C(=O)N[C@@H](CCCN=C(N)N)C(=O)O [PMNAIKLLCR]
